# Reference: US20050267133A1, “Pyrazolopyrimidines as kinase inhibitors” (priority 2002, published 2005)
# Counter-ions that a name gives are not always drawn.
# Biological target: GSK-3β (Homo sapiens, UniProt P49841)
# Assay: GSK3 scintillation proximity assay (SPA) kinase assay
# Assay type: biochemical
# Conditions: 20 nM kinase, 2.5 uM ATP, biotinylated glycogen synthase peptide, 40 minutes at room temperature; -log IC50 in Molar; read-out: GSK-3 pIC50 (converted)
# Excerpt: The phosphorylated biotinylated peptide is then captured onto streptavidin coated scintillation proximity assay (SPA) beads from Amersham Technology, where the signal from the ^33P is amplified via the scintillant contained in the beads.
# GSK-3β is commercially available or may be cloned and expressed in E. coli using standard techniques to produce soluble, active protein. The production of active protein involves purification in two steps using Metal Chelate and Ion Exchange Chromatography. Protein eluting from Ion Exchange provides >90% pure product that may then be concentrated for use in high throughput screening.
# The kinase was assayed at a concentration of 20 nM final in 100 mM HEPES, pH 7.2 containing 10 mM magnesium chloride, 0.1 mg/mL bovine serum albumin, 1 mM dithiothreitol, 0.3 mg/mL heparin, 2.8 uM peptide substrate, 2.5 uM ATP, and 0.2 uCi/well [[…]-^33P]-ATP. After 40 minutes incubation at room temperature, the reaction was stopped by addition of 100 mM EDTA and […] in 100 mM HEPES, pH7.2 followed by an additional solution of diluted Streptavidin coated SPA beads in PBS, pH 7.2 to give a final concentration of 0.25 mg of beads per assay well in a 96-well microtiter plate.
# 10 mM stock solutions of the compounds of the invention in 100% DMSO are generated as a first step in the screening process. The second step involves the creation of dose response plates where these compounds are diluted 10-fold in 100% DMSO to 1 mM concentrations and subsequently serially diluted 3-fold in 100% DMSO across the plate by automated liquid handling such that the final top concentration of inhibitor is 0.033 mM in the 30 uL kinase assay. The third step involves the creation of the assay plates. This is achieved by transferring 1 uL of the compounds to assay plates by automated liquid handling. The fourth step is to perform the assay as described and count the resulting plates in the Packard TopCount NXT microplate scintillation and luminescence counter.
# The final step is data acquisition and analysis where IC50 values are generated for each compound by normalizing curve data to the equation 100*(U1−C2)/(C1−C2) (where U1 is the cpm value, C2 is the background, and C1 is the maximum number of counts), then fitting the normalized data to the equation y=Vmax*(1−(x/(K+x))). The IC50 values were converted to pIC50 values, i.e., −log IC50 in Molar concentration. The data is expressed below in Table 1.
# GSK-3β, sequence (P49841 whole entry, species assumed): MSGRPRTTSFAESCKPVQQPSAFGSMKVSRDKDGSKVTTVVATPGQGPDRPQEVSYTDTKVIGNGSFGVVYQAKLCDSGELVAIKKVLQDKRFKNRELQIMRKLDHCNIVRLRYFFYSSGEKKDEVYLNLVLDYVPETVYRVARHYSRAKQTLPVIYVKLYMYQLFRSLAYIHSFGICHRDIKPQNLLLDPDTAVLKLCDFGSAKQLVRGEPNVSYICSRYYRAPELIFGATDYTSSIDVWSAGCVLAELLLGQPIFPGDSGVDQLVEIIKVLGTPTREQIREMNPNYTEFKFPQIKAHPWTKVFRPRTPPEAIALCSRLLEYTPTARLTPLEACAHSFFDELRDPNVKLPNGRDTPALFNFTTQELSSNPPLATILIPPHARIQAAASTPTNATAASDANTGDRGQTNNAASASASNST
row,SMILES,IC50 [µM]
1,"CN(C)c1ccc(/C=N/Nc2ncnc3c2cnn3-c2ccccc2)cn1 [Example 13, 6-(dimethylamino)nicotinaldehyde (1-phenyl-1H-pyrazolo[3,4-d]pyrimidin-4-yl)hydrazone]",1 to 10
2,"CC(C)(C)OC(=O)N1CCC(/C=N/Nc2ncnc3c2cnn3-c2ccccc2)CC1 [Example 8, tert-butyl 4-{(E)-[(1-phenyl-1H-pyrazolo[3,4-d]pyrimidin-4-yl)hydrazono]methyl}piperidine-1-carboxylate]",0.1 to 1
3,"O=C(NCCCN1CCCC1)c1ccc(/C=N/Nc2ncnc3c2cnn3-c2ccccc2)cc1 [Example 26, 4-{(E)-[(1-phenyl-1H-pyrazolo[3,4-d]pyrimidin-4-yl)hydrazono]methyl}-N-(3-pyrrolidin-1-ylpropyl)benzamide]",< 0.1
4,"CN(C)CCOc1ccc(/C=N/Nc2ncnc3c2cnn3-c2ccccc2)cn1 [Example 18, 6-[2-(dimethylamino)ethoxy]nicotinaldehyde (1-phenyl-1H-pyrazolo[3,4-d]pyrimidin-4-yl)hydrazone]",0.1 to 1
5,"Clc1cc(/C=N/Nc2ncnc3c2cnn3-c2ccccc2)ccn1 [Example 14, 2-chloroisonicotinaldehyde (1-phenyl-1H-pyrazolo[3,4-d]pyrimidin-4-yl)hydrazone]",0.1 to 1
6,"COC(=O)c1cccc(/C=N/Nc2ncnc3c2cnn3-c2ccccc2)c1 [Example 3, Methyl 3-{(E)-[(1-phenyl-1H-pyrazolo[3,4-d]pyrimidin-4-yl)hydrazono]methyl}benzoate]",0.1 to 1
7,"CC(=O)Nc1ccc(/C=N/Nc2ncnc3c2cnn3-c2ccccc2)cn1 [Example 10, N-(5-{(E)-[2-(1-phenyl-1H-pyrazolo[3,4-d]pyrimidin-4-yl)hydrazono]methyl}pyridin-2-yl)acetamide]",< 0.1
8,"COc1cc(/C=N/Nc2ncnc3c2cnn3-c2ccccc2)ccn1 [Example 15, 2-methoxyisonicotinaldehyde (1-phenyl-1H-pyrazolo[3,4-d]pyrimidin-4-yl)hydrazone]",0.1 to 1
9,"O=S(=O)(NCCN1CCOCC1)c1ccc(/C=N/Nc2ncnc3c2cnn3-c2ccccc2)cc1 [Example 21, N-(2-morpholin-4-ylethyl)-4-{(E)-[(1-phenyl-1H-pyrazolo[3,4-d]pyrimidin-4-yl)hydrazono]methyl}benzenesulfonamide]",< 0.1
10,"COc1ccc(/C=N/Nc2ncnc3c2cnn3-c2ccccc2)cn1 [Example 17, 6-methoxynicotinaldehyde (1-phenyl-1H-pyrazolo[3,4-d]pyrimidin-4-yl)hydrazone]",0.1 to 1
11,"CN(C)CCNc1ccc(/C=N/Nc2ncnc3c2cnn3-c2ccccc2)cn1 [Example 19, 6-{[2-(dimethylamino)ethyl]amino}nicotinaldehyde (1-phenyl-1H-pyrazolo[3,4-d]pyrimidin-4-yl)hydrazone hydrochloride]",< 0.1
12,"C(=N\Nc1ncnc2c1cnn2-c1ccccc1)/c1cnc2ccccc2c1 [Example 4, Quinoline-3-carbaldehyde (1-phenyl-1H-pyrazolo[3,4-d]pyrimidin-4-yl)hydrazone]",0.1 to 1
13,"C(=N\Nc1ncnc2c1cnn2-c1ccccc1)/C1CCNCC1 [Example 9, Piperidine-4-carbaldehyde (1-phenyl-1H-pyrazolo[3,4-d]pyrimidin-4-yl)hydrazone trifluoroacetate]",0.1 to 1
14,"Nc1ccc(/C=N/Nc2ncnc3c2cnn3-c2ccccc2)cn1 [Example 12, 6-aminonicotinaldehyde (1-phenyl-1H-pyrazolo[3,4-d]pyrimidin-4-yl)hydrazone trifluoroacetate]",0.1 to 1
15,"Clc1ccc(/C=N/Nc2ncnc3c2cnn3-c2ccccc2)cn1 [Example 16, 6-chloronicotinaldehyde (1-phenyl-1H-pyrazolo[3,4-d]pyrimidin-4-yl)hydrazone]",< 0.1
16,"CN(C)CCNS(=O)(=O)c1ccc(/C=N/Nc2ncnc3c2cnn3-c2ccccc2)cc1 [Example 22, N[2-(dimethylamino)ethyl]-4-[{(E)[(1-phenyl-1H-pyrazolo[3,4-d]pyrimidin-4-yl)hydrazono]methyl}benzenesulfonamide hydrochloride]",< 0.1
17,"O=S(=O)(NCCCN1CCCC1)c1ccc(/C=N/Nc2ncnc3c2cnn3-c2ccccc2)cc1 [Example 23, 4-{(E)-[(1-phenyl-1H-pyrazolo[3,4-d]pyrimidin-4-yl)hydrazono]methyl}-N-(3-pyrrolidin-1-ylpropyl)benzenesulfonamide]",< 0.1

# More lines, now with the values ahead:
row,IC50 [µM],SMILES
1,0.1 to 1,"CCN(CC)CCOc1ccc(/C=N/Nc2ncnc3c2cnn3-c2ccccc2)cc1 [Example 60, 4-(2-(Diethylamino)-ethoxy)-benzaldehyde [1-(phenyl)-1H-pyrazolo[3,4-d]pyrimidin-4-yl]hydrazone]"
2,< 0.1,"CN(C)CCNC(=O)c1cccc(/C=N/Nc2ncnc3c2cnn3-c2ccccc2)c1 [Example 40, N-[2-(dimethylamino)ethyl]-3-{(E)-[(1-phenyl-1H-pyrazolo[3,4-d]pyrimidin-4-yl)hydrazono]methyl}benzamide]"
3,< 0.1,O=C(NCCCN1CCOCC1)c1ccc(/C=N/Nc2ncnc3c2cnn3-c2ccccc2)cc1 [Example 27]
4,1 to 10,"CCc1ccc(/C=N/Nc2ncnc3c2cnn3-c2ccccc2)o1 [Example 57, 5-Ethyl-2-furaldehyde [1-(phenyl)-1H-pyrazolo[3,4-d]pyrimidin-4-yl]hydrazone]"
5,0.1 to 1,"CN1CCN(CCCNC(=O)c2ccc(/C=N/Nc3ncnc4c3cnn4-c3ccccc3)cc2)CC1 [Example 37, N[3-(4-Methylpiperazin-1-yl)propyl]-4-{(E)-[(1-phenyl-1H-pyrazolo[3,4-d]pyrimidin-4-yl)hydrazono]methyl}benzamide]"
6,0.1 to 1,CS(=O)(=O)CCNC(=O)c1cccc(/C=N/Nc2ncnc3c2cnn3-c2ccccc2)c1 [Example 41]
7,0.1 to 1,"Cc1ccc(/C=N/Nc2ncnc3c2cnn3-c2ccccc2)o1 [Example 59, 5-Methyl-2-furaldehyde [1-(phenyl)-1H-pyrazolo[3,4-d]pyrimidin-4-yl]hydrazone]"
8,0.1 to 1,"O=C(NCCN1CCOCC1)c1cccc(/C=N/Nc2ncnc3c2cnn3-c2ccccc2)c1 [Example 42, N-(2-morpholin-4-ylethyl)-3-{(E)-[(1-phenyl-1H-pyrazolo[3,4-d]pyrimidin-4-yl)hydrazono]methyl}benzamide]"
9,1 to 10,"C(=N\Nc1ncnc2c1cnn2-c1ccccc1)/c1ccnc2ccccc12 [Example 62, 4-Quinolinecarboxaldehyde [1-(phenyl)-1H-pyrazolo[3,4-d]pyrimidin-4-yl]hydrazone]"
10,0.1 to 1,"O=C(NCc1ccccn1)c1ccc(/C=N/Nc2ncnc3c2cnn3-c2ccccc2)cc1 [Example 28, 4-{(E)-[(1-phenyl-1H-pyrazolo[3,4-d]pyrimidin-4-yl)hydrazono]methyl}-N-(pyridin-2-ylmethyl)benzamide]"

# Biological target: T1, GST-TIE2 (intracellular domains of human TIE2) (Homo sapiens, UniProt Q02763)
# T1 construct: made in house
# T1 sequence (Q02763 762-1104): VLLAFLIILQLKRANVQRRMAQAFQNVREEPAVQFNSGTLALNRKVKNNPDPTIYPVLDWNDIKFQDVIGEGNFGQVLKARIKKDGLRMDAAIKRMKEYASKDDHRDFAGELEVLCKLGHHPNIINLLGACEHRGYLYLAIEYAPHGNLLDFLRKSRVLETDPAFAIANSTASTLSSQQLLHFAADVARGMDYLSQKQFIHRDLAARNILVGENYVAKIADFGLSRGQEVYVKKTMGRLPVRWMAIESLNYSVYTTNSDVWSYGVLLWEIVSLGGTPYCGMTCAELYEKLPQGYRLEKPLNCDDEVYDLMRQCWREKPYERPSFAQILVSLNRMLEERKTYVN
# Assay: TIE-2 Enzyme Assay (TIE2-E), LANCE method
# Assay type: biochemical
# Conditions: preactivated GST-TIE2, 1 μM D1-15 peptide, 80 uM ATP, 30 mins at room temperature; pIC50 = -log IC50 in Molar
# Excerpt: The TIE-2 enzyme assay used the LANCE method (Wallac) and GST-TIE2, baculovirus expressed recombinant constructs of the intracellular domains of human TIE2 (amino acids 762-1104, GenBank Accession # L06139) tagged by GST). The method measured the ability of the purified enzymes to catalyse the transfer of the γ-phosphate from ATP onto tyrosine residues in a biotinylated synthetic peptide, D1-15 (biotin-C6-LEARLVAYEGWVAGKKKamide). This peptide phosphorylation was detected using the following procedure: for enzyme preactivation, GST-TIE2 was incubated for 30 mins at room temperature with 2 mM ATP, 5 mM MgCl2 and 12.5 mM DTT in 22.5 mM HEPES buffer (pH7.4). Preactivated GST-TIE2 was incubated for 30 mins at room temperature in 96 well plates with 1 μM D1-15 peptide, 80 uM ATP, 10 mM MgCl2, 0.1 mg/ml BSA and the test compound (diluted from a 10 mM stock in DMSO, final DMSO concentration was 2.4%) in 1 mM HEPES (pH7.4). The reaction was stopped by the addition of EDTA (final concentration 45 mM). Streptavidin linked-APC (allophycocyanin, Molecular Probe) and Europium-labeled anti-phosphorylated tyrosine antibody (Wallac) were then added at the final concentration of 17 μg/well and 2.1 μg/well, respectively. The APC signal was measured using an ARVO multilabel counter. (Wallac Berthold Japan). The percent inhibition of activity was calculated relative to blank control wells.
# The concentration of test compound that inhibits 50% of activity (IC50) was interpolated using nonlinear regression (Levernberg-Marquardt) and the equation, y=Vmax (1−x/(K+x))+Y2, where “K” was equal to the IC50. The IC50 values were converted to pIC50 values, i.e., −log IC50 in Molar concentration.
# Test compounds are employed in free or salt form.
row,IC50 [µM],SMILES
1,0.1 to 1,"CCN(CC)CCOc1ccc(/C=N/Nc2ncnc3c2cnn3-c2ccccc2)cc1 [Example 60, 4-(2-(Diethylamino)-ethoxy)-benzaldehyde [1-(phenyl)-1H-pyrazolo[3,4-d]pyrimidin-4-yl]hydrazone]"
2,0.1 to 1,O=C(NCCCN1CCOCC1)c1ccc(/C=N/Nc2ncnc3c2cnn3-c2ccccc2)cc1 [Example 27]
3,0.1 to 1,"CN1CCN(CCCNC(=O)c2ccc(/C=N/Nc3ncnc4c3cnn4-c3ccccc3)cc2)CC1 [Example 37, N[3-(4-Methylpiperazin-1-yl)propyl]-4-{(E)-[(1-phenyl-1H-pyrazolo[3,4-d]pyrimidin-4-yl)hydrazono]methyl}benzamide]"
4,0.1 to 1,"O=C(NCCCN1CCCC1)c1ccc(/C=N/Nc2ncnc3c2cnn3-c2ccccc2)cc1 [Example 26, 4-{(E)-[(1-phenyl-1H-pyrazolo[3,4-d]pyrimidin-4-yl)hydrazono]methyl}-N-(3-pyrrolidin-1-ylpropyl)benzamide]"
